Common to all, as to type: functional
The subject of one test is MDA-MB-468. Description: Cytotoxicity against human MDA-MB-468 cells assessed as cellular growth at 10 uM by SRB assay.
For a further test, the system named is SF-268. The experiment in a line: Cytotoxicity against human SF268 cells assessed as cellular growth at 10 uM by SRB assay.
In the next test the test system is EKVX. The experiment in a line: Cytotoxicity against human EKVX cells assessed as cellular growth at 10 uM by SRB assay.
A further test deals with HCT-15. Description: Cytotoxicity against human HCT15 cells assessed as cellular growth at 10 uM by SRB assay.
The next test relates to NCI-H322M. Description: Cytotoxicity against human NCI-H322M cells assessed as cellular growth at 10 uM by SRB assay.
For the next test, the system named is HOP-62. The experiment in a line: Cytotoxicity against human HOP62 cells assessed as cellular growth at 10 uM by SRB assay.
A further test has as its system LOX IMVI. Description: Cytotoxicity against human LOXIMVI cells assessed as cellular growth at 10 uM by SRB assay.
For a further test, the system named is RXF 393. Description: Cytotoxicity against human RXF393 cells assessed as cellular growth at 10 uM by SRB assay.
A further test relates to SK-MEL-28. Description: Cytotoxicity against human SK-MEL-28 cells assessed as cellular growth at 10 uM by SRB assay.
The subject of another test is OVCAR-5. Description: Cytotoxicity against human OVCAR5 cells assessed as cellular growth at 10 uM by SRB assay.
The test system of another test is SK-OV-3. Description: Cytotoxicity against human SKOV3 cells assessed as cellular growth at 10 uM by SRB assay.
The subject of the next test is SR. Description: Cytotoxicity against human SR cells assessed as cellular growth at 10 uM by SRB assay.
A short description of test [1]: Cytotoxicity against human NCI-ADR-RES cells assessed as cellular growth at 10 uM by SRB assay.
The test system of the next test is IGROV-1. Description: Cytotoxicity against human IGROV1 cells assessed as cellular growth at 10 uM by SRB assay.
In another test the test system is OVCAR-3. The experiment in a line: Cytotoxicity against human OVCAR3 cells assessed as cellular growth at 10 uM by SRB assay.
A further test relates to M14. The experiment in a line: Cytotoxicity against human M14 cells assessed as cellular growth at 10 uM by SRB assay.
Another test concerns UO-31. Description: Cytotoxicity against human UO31 cells assessed as cellular growth at 10 uM by SRB assay.
The next test concerns HL-60(TB). Description: Cytotoxicity against human HL-60(TB) cells assessed as cellular growth at 10 uM by SRB assay.

Turning to `COc1cccc(C(=O)Nc2nc3ccc(Cl)cc3s2)c1`, the Activity in the test on MDA-MB-468 is 61.26%; in the test with SF-268, 106.92%; in the test with EKVX it was 81.47%; in the test on HCT-15, 71.29%; in the test on NCI-H322M, 104.25%; with HOP-62, 104.17%. Also, the Activity stood at 94.46% with LOX IMVI; 102.21% in the test with RXF 393; 101.98% in the test with SK-MEL-28; 108.78% with OVCAR-5; 90.86% in the test with SK-OV-3; 61.65% in the test with SR. The Activity in test [1] is 75.07%; in the test on IGROV-1, 74.3%; in the test with OVCAR-3, 100.09%; with M14, 102.54%; in the test on UO-31, 92.38%; with HL-60(TB) it was 68.73%.
As for `COc1ccc(Cl)cc1C(=O)Nc1nc2ccc(Cl)cc2s1`, the Activity was 76.66% in the test on MDA-MB-468; 83.22% with SF-268; 76.23% in the test with EKVX; 86.52% in the test on HCT-15; 85.62% with NCI-H322M; 89.42% in the test on HOP-62. The Activity in the test on LOX IMVI is 81.24%; in the test with RXF 393, 95.02%; in the test on SK-MEL-28, 105.02%; with OVCAR-5 it was 124.2%; in the test with SK-OV-3, 91.86%; in the test with SR, 87.67%. For the same compound, the Activity in test [1] came out at 101.67%; in the test on IGROV-1, 65.9%; in the test on OVCAR-3 it was 102.8%; in the test with M14, 95.14%; in the test with UO-31, 58.24%; in the test on HL-60(TB), 103.5%.
Take `Cc1cccc(-c2nc(-c3cccs3)no2)c1`: the Activity in the test with MDA-MB-468 was determined as 40.25%; in the test with SF-268, 112.75%; in the test with EKVX it was 84.59%; in the test with HCT-15, 83.75%; in the test on NCI-H322M, 95.9%; in the test on HOP-62 it was 79.48%. Moreover, the Activity is 95.98% in the test with LOX IMVI; 126.03% in the test on RXF 393; 109.6% with SK-MEL-28; 94.86% with SK-OV-3; 93.72% in the test with SR; 95.15% in [1]. In addition, the Activity in the test on IGROV-1 was 61.64%; with OVCAR-3, 104%; in the test with M14 it was 102.43%; in the test on UO-31 it was 59.19%; in the test on HL-60(TB), 96%.
For the compound `CC1(C)CC(=O)c2cc3c(N)c(C(=O)Nc4ccc(Cl)cc4)sc3nc2C1`, the Activity in the test on MDA-MB-468 is reported as 109.5%; in the test with SF-268 it was 124.88%; in the test on EKVX, 93.17%; in the test with HCT-15, 107.55%; with NCI-H322M, 113.55%; in the test with HOP-62 it was 108.35%. In addition, the Activity in the test with LOX IMVI is reported as 108.76%; in the test on RXF 393, 116.26%; in the test with SK-MEL-28 it was 118.07%; in the test with SK-OV-3 it was 106.15%; with SR, 112.84%; in [1], 113.97%. For the same compound, the Activity with IGROV-1 came out at 110.85%; with OVCAR-3, 111.21%; with M14 it was 107.38%; in the test on UO-31 it was 108.83%; with HL-60(TB), 107.32%.
Consider `O=c1/c(=C/c2ccccc2Cl)sc2nc(-c3ccccc3)nn12`, for which the Activity was 96.99% with MDA-MB-468; 91.24% in the test on SF-268; 99.45% with EKVX; 79.8% with HCT-15; 96.56% in the test on NCI-H322M; 103.3% in the test with HOP-62. Further, the Activity was found to be 63.33% with LOX IMVI; 99.76% in the test on RXF 393; 109.04% in the test on SK-MEL-28; 119.68% in the test with OVCAR-5; 104.04% with SK-OV-3; 45.36% in the test with SR. Also, the Activity is recorded as 90.47% in test [1]; 96.71% in the test on IGROV-1; 108.39% in the test with OVCAR-3; 76.15% in the test on M14; 58.67% in the test with UO-31; 66.88% in the test on HL-60(TB).
In the case of `O=C(Nc1nc2ccc(Cl)cc2s1)c1ccc(Cl)cc1Cl`, the Activity in the test with MDA-MB-468 is 105.42%; with SF-268 it was 111.47%; in the test with EKVX, 82.69%; in the test on HCT-15, 100.27%; in the test with NCI-H322M, 105.38%; with HOP-62 it was 106.54%. For the same compound, the Activity in the test on LOX IMVI is given as 98.46%; in the test on RXF 393, 112.15%; in the test with SK-MEL-28 it was 107.5%; in the test with OVCAR-5, 98.11%; in the test with SK-OV-3, 105.26%; in the test with SR, 98.17%. For the same compound, the Activity was found to be 98.55% in [1]; 103.26% in the test on IGROV-1; 109.17% in the test with OVCAR-3; 115.13% in the test with M14; 101% in the test on UO-31; 92.55% with HL-60(TB).
With `Clc1cccc(-c2nc(-c3cccs3)no2)c1`, the Activity was 44.69% in the test with MDA-MB-468; 102.09% with SF-268; 85.39% with EKVX; 105.75% with HCT-15; 99.44% with NCI-H322M; 85.92% in the test with HOP-62. Also, the Activity in the test with LOX IMVI is 94.7%; with RXF 393 it was 114.21%; with SK-MEL-28 it was 111.9%; with SK-OV-3, 99.21%; with SR, 100.52%; in [1], 103.45%. Further, the Activity in the test on IGROV-1 was 77.14%; in the test on OVCAR-3, 102.94%; in the test with M14 it was 105.36%; with UO-31, 71.35%; in the test with HL-60(TB), 108.47%.
Turning to `Cc1ccc(S(=O)(=O)Oc2ccc(-c3cnc4ccccc4n3)cc2)cc1`, the Activity was determined as 107.13% in the test on MDA-MB-468; 118.59% in the test with SF-268; 98.5% in the test on EKVX; 93.92% in the test with HCT-15; 113.67% in the test with NCI-H322M; 114.36% in the test on HOP-62. Besides, the Activity with LOX IMVI is listed as 99.82%; in the test with RXF 393, 103.74%; in the test on SK-MEL-28 it was 113.2%; in the test with OVCAR-5, 102.67%; with SK-OV-3, 104.03%; in the test with SR, 93.66%. Besides, the Activity in test [1] is 101.39%; in the test with IGROV-1 it was 119.02%; in the test on OVCAR-3, 115.17%; with M14, 123.34%; in the test on UO-31 it was 109.58%; in the test with HL-60(TB) it was 109.83%.
With `Cc1cc(C)c(NC(=O)c2sc3nc4c(cc3c2N)C(=O)CC(C)(C)C4)c(C)c1`, the Activity with MDA-MB-468 amounted to 85.24%; with SF-268, 115.09%; with EKVX, 92.06%; in the test on HCT-15, 96.97%; with NCI-H322M it was 115.34%; with HOP-62, 111.49%. Besides, the Activity in the test on RXF 393 amounted to 105.64%; in the test with SK-MEL-28 it was 107.04%; with OVCAR-5 it was 100.8%; in the test on SK-OV-3, 116.6%; in the test with SR, 103.93%; in [1], 95.48%. In addition, the Activity in the test on IGROV-1 is recorded as 95.36%; with OVCAR-3 it was 112.82%; in the test with M14, 107.36%; with UO-31, 99.05%; in the test with HL-60(TB) it was 108.84%.
`Cc1cc(C)c(NC(=O)c2sc3nc4c(cc3c2N)C(=O)CCC4)c(C)c1`: the Activity in the test with MDA-MB-468 is reported as -27.16%; in the test with SF-268 it was 38.6%; in the test on EKVX, 54.36%; with HCT-15, 31.78%; with NCI-H322M it was 56.34%; in the test on HOP-62 it was 36.92%. Moreover, the Activity with LOX IMVI is on record as 50.61%; in the test with RXF 393, -6.65%; with SK-MEL-28, 55.98%; with SK-OV-3 it was 10.43%; in the test on SR, 10.54%; in test [1] it was -8.04%. Moreover, the Activity was 35.36% in the test with IGROV-1; 13.17% with OVCAR-3; 16.41% with M14; 56.95% with UO-31; 14.55% in the test with HL-60(TB).

Source of the values: ChEMBL document CHEMBL2202954, “The effect of PLC-γ2 inhibitors on the growth of human tumour cells” (2012).
